Data published in patent US20240067651A1 (Biohaven Therapeutics Ltd., priority 2019, published 2024).
One block for each compound: values may come before it.

What was measured:
[1] = Caco-2 Permeability Assay; type: in vitro ADME, human; conditions: human
Text: The compounds of the invention may be tested for biological activity as MPO inhibitors by methods known to those skilled in the art. In addition, methods such as, for example, a Caco-2 assay, may be used to test the bioavailability of the compounds of the invention. A description of a Caco-2 permeability assay is as follows:
• The Caco-2 monolayer is widely used across the pharmaceutical industry as an in vitro model of the human small intestinal mucosa to predict the absorption of orally administered drugs.^1-4 • The Caco-2 cell model mimics processes such as transcellular transport, paracellular transport, and some aspects of efflux and active transport. • Readout: Papp (A→B), Papp (B→A), Efflux ratio, % Recovery • Controls: with and without Pgp inhibitor; Atenolol, Propanolol, Taxel-1
The Caco-2 cells are cultured to confluency, trypsinized and seeded onto a filter transwell insert at a density of ^˜32,000 cells/well in DMEM cell culture medium. Cells are grown in a humidified atmosphere of 5% CO2 at 37° C. Following an overnight attachment period (24 h after seeding), the cell medium is replaced with fresh medium in both the apical and basolateral compartments every other day. The cell monolayers are used for transport studies 21 days post seeding after measuring the TEER values ([…]). The apical sides and basolateral sides are washed consecutively with HBSS 2.5% (v/v), HEPES (pH 7.4) or HBSS 2.5% (v/v), HEPES 10% (v/v), and Fetal Bovine Serum (pH 7.4) at 37° C. in an incubator under an atmosphere of 5% CO2.
Donor working solution is prepared by dilution of DMSO stock of test article or positive control with transport media to 10 μM.
For A→B directional transport, the donor working solution (with test article or positive control, with or without Pgp inhibitor) is added to the apical (A) compartment and the transport media as receiver working solution is added to the basolateral (B) compartment. For B→A directional transport, the donor working solution (with positive control or test article, with or without Pgp inhibitor) is added to the basolateral (B) compartment and transport media as receiver working solution is added to the apical (A) compartment.
The cells are incubated in a humidified atmosphere of 5% CO2 at 37° C. for 90 minutes.
At the end of the incubation, samples are taken from both donor and receiver compartments and transferred into 96-well assay plates containing internal standard solution (IS) in each well. After centrifugation, the supernatant solutions are transferred to clean 96 well plates and analyzed by LC-MS/MS. The MS detection is performed using a Sciex API 4000 instrument. Each compound is analyzed by reversed phase HPLC.
The parameters Papp (apparent permeability) and efflux ratio are calculated as follows:
Papp=(dQ/dt)×(1/C0)×(1/A)
Efflux ratio=Papp[B→A]/Papp[A→B]
where dQ/dt is the permeability rate, C0 is the initial concentration in the donor compartment, and A is the surface area of the cell monolayer (0.33 cm^2). The Papp value is a rate measured in cm/s. Calculated Papp is ranked as low (<[…]), moderate (1-10×10^−6 cm/s), and high (>[…]).
Comparing the efflux ratios generated in the presence and absence of a Pgp inhibitor identifies whether the test article is a Pgp substrate.
Recovery is calculated as follows:
% Recovery=(Total compound mass in donor and receiver compartments at the end of the incubation/Initial compound mass in the donor compartment)×100.

[2] = Stability in Simulated Gastric Fluid (SGF); type: in vitro ADME; design: key: % parent compound remaining relative to 0-minute sample
How it was run: (§1)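 LC-MS/MS read-out of intact compound (2 μg/mL final) over 60 minutes at 37° C; gastric medium pH 1.2 with pepsin, intestinal medium pH 6.8 with pancreatin. Half-life from ln(% remaining) against time.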

[3] = Stability in Simulated Intestinal Fluid (SIF); type: in vitro ADME; design: key: % parent compound remaining relative to 0-minute sample
How it was run: as §1

[4] = Plasma Stability; type: in vitro ADME, human
How it was run: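 Parent compound quantified by LC-MS/MS after acetonitrile precipitation, reported as percent of control remaining (triplicate). Incubation: 1 hour, 37° C, fresh human plasma, compound at 1 μM.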

[5] = Caco-2, pH 7.4, donor 10 μM, 90 minutes, 37° C., direction not given
[6] = % remaining at 1 h, SGF with pepsin pH 1.2, 2 μg/mL, 37° C.
[7] = % remaining at 1 h, SIF with pancreatin pH 6.8, 2 μg/mL, 37° C.
[8] = % remaining at 1 h, human plasma, 1 μM, 37° C.
[9] = Caco-2, pH 7.4, Caco-2 monolayer
[10] = % remaining at 1 h in simulated gastric fluid
[11] = % remaining at 1 h in simulated intestinal fluid
[12] = % remaining at 1 h in human plasma
[13] = Caco-2, pH 7.4, Caco-2 monolayer, the 17th table
[14] = % remaining at 1 h in simulated gastric fluid, the 17th table
[15] = % remaining at 1 h in simulated intestinal fluid, the 17th table
[16] = % remaining at 1 h in human plasma, the 17th table
[17] = bare number, no % and no time given

SMILES: CC(C)OCCn1c(SC(C)OC(=O)N(C)c2ncccc2COC(=O)CN(C)C(=O)OC(C)(C)C)nc(=O)c2[nH]ccc21 (stereo not drawn) [Example 212, (tert-Butoxycarbonyl-methyl-amino)-acetic acid 2-({1-[1-(2-isopropoxy-ethyl)-4-oxo-4,5-dihydro-1H-pyrrolo[3,2-d]pyrimidin-2-ylsulfanyl]-ethoxycarbonyl}-methyl-amino)-pyridin-3-ylmethyl ester]
Papp at 90 min, 10 µM [1, 5]: 0.87 ×10⁻⁶ cm/s
SGF [2, 6]: 89%
SIF [3, 7]: 97%
human Plasma stability [4, 8]: 97%

Papp at 90 min, 10 µM [1, 9]: 14.9 ×10⁻⁶ cm/s
SGF [2, 10]: 83% remaining
SIF [3, 11]: 64% remaining
human Plasma stability [4, 12]: 30% remaining
SMILES: CC(C)OCCn1c(=S)[nH]c(=O)c2c1ccn2COC(=O)OCCOCCNC(=O)OC(C)(C)C [Example 120]

Papp at 90 min, 10 µM [1, 5]: 7.05 ×10⁻⁶ cm/s
SGF [2, 6]: 97%
SIF [3, 7]: 28%
human Plasma stability [4, 8]: 0%
SMILES: COCCOCCOCC(=O)OCn1ccc2c1c(=O)[nH]c(=S)n2CCOC(C)C [Example 87]

Papp at 90 min, 10 µM ([1]; Caco-2, pH 7.4, Caco-2 monolayer, the 15th table): 4.59 ×10⁻⁶ cm/s
SGF ([2]; % remaining at 1 h in simulated gastric fluid, the 15th table): 94% @ 1 h
SIF ([3]; % remaining at 1 h in simulated intestinal fluid, the 15th table): 99% @ 1 h
human Plasma stability ([4]; % remaining at 1 h in human plasma, the 15th table): 92% @ 1 h
SMILES: CCCNC(=O)OCSc1nc(=O)c2c(ccn2COC(=O)NCCC)n1CCOC(C)C [Example 183]

Papp at 90 min, 10 µM [1, 5]: 21.1 ×10⁻⁶ cm/s
SGF [2, 6]: 100%
SIF [3, 7]: 100%
human Plasma stability [4, 8]: 99%
SMILES: CC(C)OCCn1c(=S)[nH]c(=O)c2c1ccn2C(C)OC(=O)N(CC(F)(F)F)CC(F)(F)F (stereo not drawn) [Example 112, 1-{4-oxo-1-[2-(propan-2-yloxy)ethyl]-2-sulfanylidene-1H,2H,3H,4H,5H-pyrrolo[3,2-d]pyrimidin-5-yl}ethyl N,N-bis(2,2,2-trifluoroethyl)carbamate]

Papp at 90 min, 10 µM [1, 5]: 26.4 ×10⁻⁶ cm/s
SGF [2, 6]: 98%
SIF [3, 7]: 76%
human Plasma stability [4, 8]: 96%
SMILES: CC(C)OCCn1c(=S)[nH]c(=O)c2c1ccn2C(=O)NC(C)(C)C [Example 229, N-tert-butyl-4-oxo-1-[2-(propan-2-yloxy)ethyl]-2-sulfanylidene-1H,2H,3H,4H,5H-pyrrolo[3,2-d]pyrimidine-5-carboxamide]

SMILES: CC(C)C[C@@H](NC(=O)OC(C)(C)C)C(=O)OCSc1nc(=O)c2c(ccn2COC(=O)[C@@H](CC(C)C)NC(=O)OC(C)(C)C)n1CCOC(C)C [Example 318, {[5-({[(2R)-2-{[(tert-butoxy)carbonyl]amino}-4-methylpentanoyl]oxy}methyl)-4-oxo-1-[2-(propan-2-yloxy)ethyl]-1H,4H,5H-pyrrolo[3,2-d]pyrimidin-2-yl]sulfanyl}methyl (2R)-2-{[(tert-butoxy)carbonyl]amino}-4-methylpentanoate]
Papp at 90 min, 10 µM ([1]; Caco-2, pH 7.4): 25.4 ×10⁻⁶ cm/s
SGF ([2]; % remaining @ 1 h): 81%@ 1 h
SIF ([3]; % remaining @ 1 h): 2%@ 1 h
human Plasma stability ([4]; % remaining @ 1 h): 85%@ 1 h

Papp at 90 min, 10 µM [1, 9]: 11.7 ×10⁻⁶ cm/s
SGF ([2]; simulated gastric fluid, at 1 h): 99% remaining
SIF ([3]; simulated intestinal fluid, at 1 h): 96% remaining
human Plasma stability ([4]; human plasma, at 1 h): 85% remaining
SMILES: CC(C)OCCn1c(SCOC(=O)N(C)c2ccccc2F)nc(=O)c2[nH]ccc21 [Example 239]

Papp at 90 min, 10 µM [1, 13]: 5.32 ×10⁻⁶ cm/s
SGF [2, 14]: 88% remaining
SIF [3, 15]: 1% remaining
human Plasma stability [4, 16]: 5% remaining
SMILES: CCCCCOC(=O)OCSc1nc(=O)c2c(ccn2COC(=O)OCCCCC)n1CCOC(C)C [Example 217]

Papp at 90 min, 10 µM ([1]; Caco-2, pH 7.4, no unit printed at the place (tables the 9th table and the 10th table have no head)): 27.7 ×10⁻⁶ cm/s
SGF [2, 6]: 99%
SIF [3, 7]: 97%
human Plasma stability [4, 8]: 97%
SMILES: CC(C)OCCn1c(=S)[nH]c(=O)c2c1ccn2COC(=O)NCC(F)(F)F [Example 100, {4-oxo-1-[2-(propan-2-yloxy)ethyl]-2-sulfanylidene-1H,2H,3H,4H,5H-pyrrolo[3,2-d]pyrimidin-5-yl}methyl N-(2,2,2-trifluoroethyl)carbamate]

Papp at 90 min, 10 µM [1, 13]: 12.6 ×10⁻⁶ cm/s
SGF [2, 14]: 83% remaining
SIF [3, 15]: 100% remaining
human Plasma stability [4, 16]: 89% remaining
SMILES: CCCCNC(=O)n1ccc2c1c(=O)[nH]c(=S)n2CCOC(C)C [Example 224]

SMILES: CC(C)OCCn1c(=S)[nH]c(=O)c2c1ccn2COC(=O)CCNC(=O)[C@@H]1CCCN1C(N)=O.O=C(O)C(F)(F)F [Example 62]
Papp at 90 min, 10 µM [1, 9]: 0.162 ×10⁻⁶ cm/s
SGF [2, 10]: 99% remaining
SIF [3, 11]: 99% remaining
human Plasma stability [4, 12]: 91% remaining

Papp at 90 min, 10 µM [1, 9]: < 0.198 ×10⁻⁶ cm/s
SGF [2, 10]: 82% remaining
SIF [3, 11]: 97% remaining
human Plasma stability [4, 12]: 7% remaining
SMILES: CC(C)OCCn1c(SCOC(=O)C2CCNCC2)nc(=O)c2c1ccn2COC(=O)CCC(=O)O [Example 133]

SMILES: CC(C)C[C@@H](N)C(=O)OCn1c(=O)c2c(ccn2COC(=O)[C@H](N)CC(C)C)n(CCOC(C)C)c1=S.O=C(O)C(F)(F)F.O=C(O)C(F)(F)F [Example 326, bis(trifluoroacetic acid) [3-({[(2R)-2-amino-4-methylpentanoyl]oxy}methyl)-4-oxo-1-[2-(propan-2-yloxy)ethyl]-2-sulfanylidene-1H,2H,3H,4H,5H-pyrrolo [3,2-d]pyrimidin-5-yl]methyl (2R)-2-amino-4-methylpentanoate]
Papp at 90 min, 10 µM ([1]; Caco-2, pH 7.4): < 0.338 ×10⁻⁶ cm/s
SGF ([2]; % remaining @ 1 h): 97%@ 1 h
SIF ([3]; % remaining @ 1 h): 9%@ 1 h
human Plasma stability ([4]; % remaining @ 1 h): 17%@ 1 h

Papp at 90 min, 10 µM [1, 5]: 18 ×10⁻⁶ cm/s
SGF [2, 6]: 77% remaining
SIF [3, 7]: 56% remaining
human Plasma stability [4, 8]: 0% remaining
SMILES: CC(C)OCCn1c(=S)[nH]c(=O)c2c1ccn2COC(=O)OC(C)C [Example 90, {4-oxo-1-[2-(propan-2-yloxy)ethyl]-2-sulfanylidene-1H,2H,3H,4H,5H-pyrrolo[3,2-d]pyrimidin-5-yl}methyl propan-2-yl carbonate]

Papp at 90 min, 10 µM [1, 5]: 20.3 ×10⁻⁶ cm/s
SGF [2, 17]: 98
SIF [3, 17]: 97
human Plasma stability [4, 8]: 98% remaining
SMILES: CC(C)OCCn1c(SCOC(=O)N(CC(F)(F)F)CC(F)(F)F)nc(=O)c2[nH]ccc21 [Example 96, ({4-oxo-1-[2-(propan-2-yloxy)ethyl]-1H,4H,5H-pyrrolo[3,2-d]pyrimidin-2-yl}sulfanyl)methyl N,N-bis(2,2,2-trifluoroethyl)carbamate]

SMILES: CC(C)OCCn1c(SCOC(=O)N(C)C(C)C)nc(=O)c2[nH]ccc21.O=C(O)C(F)(F)F [Example 166]
Papp at 90 min, 10 µM [1, 9]: 7.08 ×10⁻⁶ cm/s
SGF ([2]; % @ 1 h (remaining) in simulated gastric fluid): 99% @ 1 h
SIF ([3]; % @ 1 h (remaining) in simulated intestinal fluid): 99% @ 1 h
human Plasma stability ([4]; % @ 1 h (remaining) in human plasma): 100% @ 1 h

SMILES: CC(C)OCCn1c(=S)[nH]c(=O)c2c1ccn2COC(=O)CCNC(=O)CN(C)C(=O)OC(C)(C)C.O=C(O)C(F)(F)F [Example 54]
Papp at 90 min, 10 µM [1, 9]: 3.14 ×10⁻⁶ cm/s
SGF [2, 10]: 93% remaining
SIF [3, 11]: 87% remaining
human Plasma stability [4, 12]: 74% remaining
